No end group written: not given here.
Tested on: immature T-cell development (de novo antigens on T lymphocytes)
Test: T cell development in nude athymic mice (thymopentin vs 4-thiothymopentin)
Format: in vivo
Conditions: 20 micrograms per subject
Excerpt: The incorporation of thioamide linkages at positions on the peptide backbone which are susceptible to degradation may be performed in order to increase the peptide's resistance to enzymatic digestion. This enhanced stability may afford greater biological activities to the peptides prolonged existence. For example, thymopentin, which is merely a biologically active fragment of the polypeptide thymopoietin, may be modified to elicit this response. […] A control group of nude athymic mice was administered 20 micrograms of thymopentin per subject according to well-known assay techniques. See, e.g., O. Archer, T. Pierce, B. Papermanter, and R. Good, "Reduced Antibody Response in Thymectomized Rabbits", Nature, 195, 191 (1962); D. Oscaba and J. Miller, "Evidence for a Humeral Thymus Factor Responsible for the Maturation of Immunological Faculty", Nature, 199, 653 (1963); P. Magrit, "T-Cell Development in Normal and Thymopentintreated Nude Mice", J. Exp. Med., 156, 1057 (1982). […]
The immunomodulatory action of thymopentin and 4-thiothymopentin on immature T-cell development by the expression of de novo antigens on T lymphocytes after daily subcutaneous injections for two weeks in four week old nude athymic mice was measured. […]

RKDVY [thymopentin]
mean increase for the maturation of T cells and related immune responses: 43%

From patent US5138061A, “Thioacylating reagents” (BioChem Pharma Inc., priority 1989, dated 1992)
